Source: US20220213047A1, “CARBONIC ANHYDRASE INHIBITORS FOR TREATMENT OF NEISSERIA GONORRHOEAE INFECTION” (Purdue Research Foundation, priority 2021, published 2022)
Converted amounts (≈) assume the structure as drawn.

Legend:
N. gonorrhoeae [1] = assay: MIC by agar dilution on a larger panel of N. gonorrhoeae strains; type: cell-based, Neisseria gonorrhoeae; settings: Neisseria gonorrhoeae
Method: (§1) These tests were performed in normal culture conditions with standard CO2 levels and in CO2 (5% in incubator) conditions.

N. gonorrhoeae [2] = assay: MIC against N. gonorrhoeae clinical isolates, normal and CO2 conditions; type: cell-based; settings: Neisseria gonorrhoeae
Method: as §1

[3] = strain panel of Table 9, CO2 (5% CO2 containing air)

In the case of `NS(=O)(=O)c1cc(Cl)c(Cl)c(S(N)(=O)=O)c1` [Dichlorphenamide], the MIC (N. gonorrhoeae [1]; N. gonorrhoeae 165, CO2 (5% CO2 containing air), read-out: MIC) is reported as > 128 mg/L, the MIC (N. gonorrhoeae [1]; N. gonorrhoeae 165, Non CO2 (ambient air), read-out: MIC) is reported as 2 mg/L (≈ 6.55 µM) and the MIC (N. gonorrhoeae [1]; N. gonorrhoeae 166, CO2 (5% CO2 containing air), read-out: MIC) is reported as > 128 mg/L. The MIC (N. gonorrhoeae [1]; N. gonorrhoeae 166, Non CO2 (ambient air), read-out: MIC) was 8 mg/L (≈ 26.2 µM), the MIC (N. gonorrhoeae [1]; N. gonorrhoeae 167, CO2 (5% CO2 containing air), read-out: MIC) was > 128 mg/L and the MIC (N. gonorrhoeae [1]; N. gonorrhoeae 167, Non CO2 (ambient air), read-out: MIC) was 4 mg/L (≈ 13.1 µM). The MIC (N. gonorrhoeae [1]; N. gonorrhoeae 170, CO2 (5% CO2 containing air), read-out: MIC) was > 128 mg/L, the MIC (N. gonorrhoeae [1]; N. gonorrhoeae 170, Non CO2 (ambient air), read-out: MIC) was 64 mg/L (≈ 210 µM) and the MIC (N. gonorrhoeae [1]; N. gonorrhoeae 171, CO2 (5% CO2 containing air), read-out: MIC) was > 128 mg/L. For the same compound, the MIC (N. gonorrhoeae [1]; N. gonorrhoeae 171, Non CO2 (ambient air), read-out: MIC) was 1 mg/L (≈ 3.28 µM), the MIC (N. gonorrhoeae [1]; N. gonorrhoeae 173, CO2 (5% CO2 containing air), read-out: MIC) was > 128 mg/L and the MIC (N. gonorrhoeae [1]; N. gonorrhoeae 173, Non CO2 (ambient air), read-out: MIC) was 2 mg/L (≈ 6.55 µM). The MIC (N. gonorrhoeae [1]; N. gonorrhoeae 174, CO2 (5% CO2 containing air), read-out: MIC) was > 128 mg/L, the MIC (N. gonorrhoeae [1]; N. gonorrhoeae 174, Non CO2 (ambient air), read-out: MIC) was 2 mg/L (≈ 6.55 µM) and the MIC (N. gonorrhoeae [1]; N. gonorrhoeae 175, CO2 (5% CO2 containing air), read-out: MIC) was > 128 mg/L. The MIC (N. gonorrhoeae [1]; N. gonorrhoeae 175, Non CO2 (ambient air), read-out: MIC) was 16 mg/L (≈ 52.4 µM), the MIC (N. gonorrhoeae [1]; N. gonorrhoeae 176, CO2 (5% CO2 containing air), read-out: MIC) was > 128 mg/L and the MIC (N. gonorrhoeae [1]; N. gonorrhoeae 176, Non CO2 (ambient air), read-out: MIC) was 4 mg/L (≈ 13.1 µM). The MIC (N. gonorrhoeae [1]; N. gonorrhoeae 177, CO2 (5% CO2 containing air), read-out: MIC) was 128 mg/L (≈ 419 µM), the MIC (N. gonorrhoeae [1]; N. gonorrhoeae 177, Non CO2 (ambient air), read-out: MIC) was 4 mg/L (≈ 13.1 µM) and the MIC (N. gonorrhoeae [1]; N. gonorrhoeae 178, CO2 (5% CO2 containing air), read-out: MIC) was > 128 mg/L. For the same compound, the MIC (N. gonorrhoeae [1]; N. gonorrhoeae 178, Non CO2 (ambient air), read-out: MIC) was 1 mg/L (≈ 3.28 µM), the MIC (N. gonorrhoeae [1]; N. gonorrhoeae 179, CO2 (5% CO2 containing air), read-out: MIC) was > 128 mg/L and the MIC (N. gonorrhoeae [1]; N. gonorrhoeae 179, Non CO2 (ambient air), read-out: MIC) was 8 mg/L (≈ 26.2 µM). For the same compound, the MIC (N. gonorrhoeae [1]; N. gonorrhoeae 180, CO2 (5% CO2 containing air), read-out: MIC) was > 128 mg/L, the MIC (N. gonorrhoeae [1]; N. gonorrhoeae 180, Non CO2 (ambient air), read-out: MIC) was 8 mg/L (≈ 26.2 µM) and the MIC (N. gonorrhoeae [1]; N. gonorrhoeae 181, CO2 (5% CO2 containing air), read-out: MIC) was 128 mg/L (≈ 419 µM). The MIC (N. gonorrhoeae [1]; N. gonorrhoeae 181, Non CO2 (ambient air), read-out: MIC) was 8 mg/L (≈ 26.2 µM), the MIC (N. gonorrhoeae [1]; N. gonorrhoeae 182, CO2 (5% CO2 containing air), read-out: MIC) was > 128 mg/L and the MIC (N. gonorrhoeae [1]; N. gonorrhoeae 182, Non CO2 (ambient air), read-out: MIC) was 16 mg/L (≈ 52.4 µM). The MIC (N. gonorrhoeae [1]; N. gonorrhoeae 183, CO2 (5% CO2 containing air), read-out: MIC) was 128 mg/L (≈ 419 µM), the MIC (N. gonorrhoeae [1]; N. gonorrhoeae 183, Non CO2 (ambient air), read-out: MIC) was 1 mg/L (≈ 3.28 µM) and the MIC (N. gonorrhoeae [1]; N. gonorrhoeae 184, CO2 (5% CO2 containing air), read-out: MIC) was > 128 mg/L. For the same compound, the MIC (N. gonorrhoeae [1]; N. gonorrhoeae 184, Non CO2 (ambient air), read-out: MIC) was 4 mg/L (≈ 13.1 µM), the MIC (N. gonorrhoeae [1]; N. gonorrhoeae 185, CO2 (5% CO2 containing air), read-out: MIC) was > 128 mg/L and the MIC (N. gonorrhoeae [1]; N. gonorrhoeae 185, Non CO2 (ambient air), read-out: MIC) was 8 mg/L (≈ 26.2 µM). The MIC (N. gonorrhoeae [1]; N. gonorrhoeae 186, CO2 (5% CO2 containing air), read-out: MIC) was > 128 mg/L, the MIC (N. gonorrhoeae [1]; N. gonorrhoeae 186, Non CO2 (ambient air), read-out: MIC) was 8 mg/L (≈ 26.2 µM) and the MIC (N. gonorrhoeae [1]; N. gonorrhoeae 188, CO2 (5% CO2 containing air), read-out: MIC) was > 128 mg/L. The MIC (N. gonorrhoeae [1]; N. gonorrhoeae 188, Non CO2 (ambient air), read-out: MIC) was 1 mg/L (≈ 3.28 µM), the MIC (N. gonorrhoeae [1]; N. gonorrhoeae 191, CO2 (5% CO2 containing air), read-out: MIC) was > 128 mg/L and the MIC (N. gonorrhoeae [1]; N. gonorrhoeae 191, Non CO2 (ambient air), read-out: MIC) was 4 mg/L (≈ 13.1 µM). It also gave an MIC (N. gonorrhoeae [1]; N. gonorrhoeae 193, CO2 (5% CO2 containing air), read-out: MIC) of 128 mg/L (≈ 419 µM), an MIC (N. gonorrhoeae [1]; N. gonorrhoeae 193, Non CO2 (ambient air), read-out: MIC) of 4 mg/L (≈ 13.1 µM) and an MIC (N. gonorrhoeae [1]; N. gonorrhoeae 194, CO2 (5% CO2 containing air), read-out: MIC) of 128 mg/L (≈ 419 µM). For the same compound, the MIC (N. gonorrhoeae [1]; N. gonorrhoeae 194, Non CO2 (ambient air), read-out: MIC) was 4 mg/L (≈ 13.1 µM), the MIC (N. gonorrhoeae [1]; N. gonorrhoeae 196, CO2 (5% CO2 containing air), read-out: MIC) was > 128 mg/L and the MIC (N. gonorrhoeae [1]; N. gonorrhoeae 196, Non CO2 (ambient air), read-out: MIC) was 1 mg/L (≈ 3.28 µM). The MIC (N. gonorrhoeae [1]; N. gonorrhoeae 197, CO2 (5% CO2 containing air), read-out: MIC) was > 128 mg/L, the MIC (N. gonorrhoeae [1]; N. gonorrhoeae 197, Non CO2 (ambient air), read-out: MIC) was 4 mg/L (≈ 13.1 µM) and the MIC (N. gonorrhoeae [1]; N. gonorrhoeae 198, CO2 (5% CO2 containing air), read-out: MIC) was > 128 mg/L. The MIC (N. gonorrhoeae [1]; N. gonorrhoeae 198, Non CO2 (ambient air), read-out: MIC) was 1 mg/L (≈ 3.28 µM), the MIC (N. gonorrhoeae [1]; N. gonorrhoeae 200, CO2 (5% CO2 containing air), read-out: MIC) was > 128 mg/L and the MIC (N. gonorrhoeae [1]; N. gonorrhoeae 200, Non CO2 (ambient air), read-out: MIC) was 32 mg/L (≈ 105 µM). For the same compound, the MIC (N. gonorrhoeae [1]; N. gonorrhoeae 202, CO2 (5% CO2 containing air), read-out: MIC) was > 128 mg/L, the MIC (N. gonorrhoeae [1]; N. gonorrhoeae 202, Non CO2 (ambient air), read-out: MIC) was 16 mg/L (≈ 52.4 µM) and the MIC (N. gonorrhoeae [1]; N. gonorrhoeae 203, CO2 (5% CO2 containing air), read-out: MIC) was > 128 mg/L. For the same compound, the MIC (N. gonorrhoeae [1]; N. gonorrhoeae 203, Non CO2 (ambient air), read-out: MIC) was 1 mg/L (≈ 3.28 µM), the MIC (N. gonorrhoeae [1]; N. gonorrhoeae 205, CO2 (5% CO2 containing air), read-out: MIC) was > 128 mg/L and the MIC (N. gonorrhoeae [1]; N. gonorrhoeae 205, Non CO2 (ambient air), read-out: MIC) was 16 mg/L (≈ 52.4 µM). For the same compound, the MIC (N. gonorrhoeae [1]; N. gonorrhoeae 206, CO2 (5% CO2 containing air), read-out: MIC) was > 128 mg/L, the MIC (N. gonorrhoeae [1]; N. gonorrhoeae 206, Non CO2 (ambient air), read-out: MIC) was 4 mg/L (≈ 13.1 µM) and the MIC (N. gonorrhoeae [1]; N. gonorrhoeae 207, CO2 (5% CO2 containing air), read-out: MIC) was > 128 mg/L. The MIC (N. gonorrhoeae [1]; N. gonorrhoeae 207, Non CO2 (ambient air), read-out: MIC) was 4 mg/L (≈ 13.1 µM), the MIC (N. gonorrhoeae [1]; N. gonorrhoeae 208, CO2 (5% CO2 containing air), read-out: MIC) was > 128 mg/L and the MIC (N. gonorrhoeae [1]; N. gonorrhoeae 208, Non CO2 (ambient air), read-out: MIC) was 4 mg/L (≈ 13.1 µM). The MIC (N. gonorrhoeae [1]; N. gonorrhoeae 209, CO2 (5% CO2 containing air), read-out: MIC) was > 128 mg/L, the MIC (N. gonorrhoeae [1]; N. gonorrhoeae 209, Non CO2 (ambient air), read-out: MIC) was 1 mg/L (≈ 3.28 µM) and the MIC (N. gonorrhoeae [1]; N. gonorrhoeae 210, CO2 (5% CO2 containing air), read-out: MIC) was > 128 mg/L. The MIC (N. gonorrhoeae [1]; N. gonorrhoeae 210, Non CO2 (ambient air), read-out: MIC) was 4 mg/L (≈ 13.1 µM), the MIC (N. gonorrhoeae [1]; N. gonorrhoeae 211, CO2 (5% CO2 containing air), read-out: MIC) was > 64 mg/L and the MIC (N. gonorrhoeae [1]; N. gonorrhoeae 211, Non CO2 (ambient air), read-out: MIC) was 1 mg/L (≈ 3.28 µM). The MIC (N. gonorrhoeae [1]; N. gonorrhoeae 212, CO2 (5% CO2 containing air), read-out: MIC) was > 128 mg/L, the MIC (N. gonorrhoeae [1]; N. gonorrhoeae 212, Non CO2 (ambient air), read-out: MIC) was 32 mg/L (≈ 105 µM) and the MIC (N. gonorrhoeae [1]; N. gonorrhoeae 213, CO2 (5% CO2 containing air), read-out: MIC) was > 128 mg/L. The MIC (N. gonorrhoeae [1]; N. gonorrhoeae 213, Non CO2 (ambient air), read-out: MIC) was 16 mg/L (≈ 52.4 µM), the MIC (N. gonorrhoeae [1]; N. gonorrhoeae 214, CO2 (5% CO2 containing air), read-out: MIC) was > 128 mg/L and the MIC (N. gonorrhoeae [1]; N. gonorrhoeae 214, Non CO2 (ambient air), read-out: MIC) was 1 mg/L (≈ 3.28 µM). The MIC50 (N. gonorrhoeae [1]; [3]) was > 128 mg/L, the MIC90 (N. gonorrhoeae [1]; [3]) was > 128 mg/L and the MIC (N. gonorrhoeae [1]; strain panel of Table 9, CO2 (5% CO2 containing air), read-out: Modal MIC) was > 128 mg/L. The MIC50 (N. gonorrhoeae [1]; strain panel of Table 9, Non CO2 (ambient air)) was 4 mg/L (≈ 13.1 µM), the MIC (N. gonorrhoeae [1]; strain panel of Table 9, Non CO2 (ambient air), read-out: Modal MIC) was 4 mg/L (≈ 13.1 µM) and the MIC90 (N. gonorrhoeae [1]; strain panel of Table 9, Non CO2 (ambient air, standard CO2 conditions)) was 16 mg/L (≈ 52.4 µM). The MIC (N. gonorrhoeae [2]; N. gonorrhoeae 178, Non CO2 environment) was 2 mg/L (≈ 6.55 µM), the MIC (N. gonorrhoeae [2]; N. gonorrhoeae 178, normal growth environment (with CO2)) was > 64 mg/L and the MIC (N. gonorrhoeae [2]; N. gonorrhoeae 181, Non CO2 environment) was 8 mg/L (≈ 26.2 µM). For the same compound, the MIC (N. gonorrhoeae [2]; N. gonorrhoeae 181, normal growth environment (with CO2)) was > 64 mg/L, the MIC (N. gonorrhoeae [2]; N. gonorrhoeae 194, Non CO2 environment) was 4 mg/L (≈ 13.1 µM) and the MIC (N. gonorrhoeae [2]; N. gonorrhoeae 194, normal growth environment (with CO2)) was > 64 mg/L.
